Experimental data from ChEMBL document CHEMBL1153249, “Conversion of 4-cyanomethyl-pyrazole-3-carboxamides into CB1 antagonists with lowered propensity to pass the blood-brain-barrier” (Bioorg Med Chem Lett, 2010).
Values after ≈ are worked out from the molar mass of the structure shown. Active and inactive are the calls of the source. The rule behind the calls is not given here.

Tests used:
Cannabinoid receptor 1 [1] = target: T1, Cannabinoid receptor 1 (Homo sapiens, UniProt P21554); experiment: Inverse agonist activity at human CB1 receptor expressed in CHO-K1 cells by GTPgammaS binding assay; type: functional, cell-based
T1 sequence (P21554 whole entry): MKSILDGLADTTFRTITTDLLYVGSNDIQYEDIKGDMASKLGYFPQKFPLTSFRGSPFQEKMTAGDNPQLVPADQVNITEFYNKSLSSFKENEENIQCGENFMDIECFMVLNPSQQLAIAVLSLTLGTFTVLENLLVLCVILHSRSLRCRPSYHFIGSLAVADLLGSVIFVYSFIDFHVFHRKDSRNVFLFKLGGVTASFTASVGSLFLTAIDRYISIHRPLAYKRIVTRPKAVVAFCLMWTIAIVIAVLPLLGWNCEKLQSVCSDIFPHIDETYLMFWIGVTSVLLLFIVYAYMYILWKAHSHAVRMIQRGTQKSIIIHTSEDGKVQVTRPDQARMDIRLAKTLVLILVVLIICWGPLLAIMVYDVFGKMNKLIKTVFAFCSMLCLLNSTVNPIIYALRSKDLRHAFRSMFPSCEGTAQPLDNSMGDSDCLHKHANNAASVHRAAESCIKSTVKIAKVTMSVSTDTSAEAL

Cannabinoid receptor 1 [2] = target: T1, Cannabinoid receptor 1; experiment: biochemical; type: cell-based, COS-7
Description: Displacement of [3H]CP-55940 from human CB1 receptor expressed in COS7 cells

[3] = Lipophilicity, log D by chromatography; type: physicochemical
[4] = Solubility of the compound; type: physicochemical
Cannabinoid receptor 1 [5] = target: T1, Cannabinoid receptor 1; type: functional, cell-based, CHO-K1
Description: Antagonist activity at human CB1 receptor expressed in CHO-K1 cells assessed as inhibition of CP-55940-induced GTPgammaS binding

[6] = Oral bioavailability in mouse; type: ADME, organism-based; conditions: in vivo
Cannabinoid receptor 1 [7] = target: T1, Cannabinoid receptor 1; experiment: Displacement of [3H]CP-55940 from human CB1 receptor expressed in CHO-K1 cells; type: cell-based
[8] = Stability in rat microsomes assessed as compound remaining after 30 mins; type: ADME, Microsome; conditions: read-out: Stability
[9] = Oral bioavailability in rat; type: ADME, organism-based; conditions: in vivo
[10] = Ratio of drug level in plasma to brain in rat at 5 mg/kg, po after 6 hrs; type: ADME, organism-based; parameters: dose 5 mg/kg, route oral; conditions: in vivo
[11] = Ratio of drug level in plasma to brain in mouse at 10 mg/kg, po after 6 hrs; type: ADME, organism-based; parameters: dose 10 mg/kg, route oral; conditions: in vivo
[12] = Selectivity for human CB1 receptor over CB2 receptor by GTPgammaS binding assay
[13] = Ratio of drug level in plasma to brain in po dosed diet-induced obese mouse after 6 hrs; type: ADME, organism-based; conditions: in vivo
Mus musculus [14] = experiment: Reduction in WIN-55212-induced hypothermia in mouse at 10 mg/kg po pretreated 40 mins prior to WIN-55212 challenge measured after 1 hr; type: functional, organism-based; parameters: dose 10 mg/kg
Mus musculus [15] = experiment: Reduction in body weight in diet-induced obese mouse at 10 mg/kg, po; type: functional; parameters: scale not given: the % may be the effect or the level left
Mus musculus [16] = experiment: Reduction in body weight in diet-induced obese mouse at 3 mg/kg, po; type: functional; parameters: scale not given: the % may be the effect or the level left
Mus musculus [17] = experiment: Reduction in WIN-55212-induced hypothermia in mouse at 1 mg/kg po pretreated 40 mins prior to WIN-55212 challenge measured after 1 hr; type: functional, organism-based; parameters: dose 1 mg/kg
[18] = Ratio of drug level in plasma to brain in mouse at 10 mg/kg, po after 3 hrs; type: ADME, organism-based; parameters: dose 10 mg/kg, route oral; conditions: in vivo
[19] = Stability in rat microsomes after 30 mins; type: ADME, Microsome; conditions: 0.5 h
[20] = Ratio of drug level in plasma to brain in rat at 10 mg/kg, ip after 6 hrs; type: ADME, organism-based; parameters: dose 10 mg/kg, route intraperitoneal; conditions: in vivo
[21] = Bioavailability in ip dosed rat; type: ADME, organism-based; conditions: in vivo
[22] = Stability in mouse microsomes after 30 mins; type: ADME, Microsome; conditions: 0.5 h

NC(=O)Cc1c(C(=O)N2CCC(O)(c3ccccc3)CC2)nn(-c2ccccc2Cl)c1-c1ccc(Cl)cc1
IC50 (Cannabinoid receptor 1 [1]): 0.11 nM | IC50 (Cannabinoid receptor 1 [2]): 2.9 nM | chromatographic logD [3]: 2.7 | solubility ([4]; read-out: solubility): 105 µM (≈ 57.7 µg/mL) | IC50 (Cannabinoid receptor 1 [5]): 0.26 nM

N=C(Cc1c(C(=O)N2CCC(c3ccccc3F)CC2)nn(-c2ccccc2Cl)c1-c1ccc(Cl)cc1)NO
IC50 (Cannabinoid receptor 1 [5]): 0.54 nM

NC(=O)Cc1c(C(=O)N2CCC(C(=O)O)(c3ccc(F)cn3)CC2)nn(-c2ccccc2Cl)c1-c1ccc(Cl)cc1
chromatographic logD [3]: 1.6 | bioavailability [6]: 4% | solubility ([4]; read-out: solubility): 500 µM (≈ 298 µg/mL) | IC50 (Cannabinoid receptor 1 [5]): 30 nM

Cc1ccncc1NC(=O)c1nn(-c2ccccc2Cl)c(-c2ccc(Cl)cc2)c1CC(N)=O
IC50 (Cannabinoid receptor 1 [7]): 0.55 nM | IC50 (Cannabinoid receptor 1 [1]): 1.7 nM | chromatographic logD [3]: 2.4 | solubility ([4]; read-out: solubility): 200 µM (≈ 96.1 µg/mL) | IC50 (Cannabinoid receptor 1 [5]): 3 nM | remaining at 0.5 h [8]: 63% | bioavailability [9]: 39% | Ratio [10]: 1.2

NC(=O)Cc1c(C(=O)NN2CCOCC2)nn(-c2ccccc2Cl)c1-c1ccc(Cl)cc1
IC50 (Cannabinoid receptor 1 [7]): 7.9 nM | IC50 (Cannabinoid receptor 1 [1]): 1.7 nM | chromatographic logD [3]: 1.8 | IC50 (Cannabinoid receptor 1 [5]): 7 nM

N#CN1CCC(CNC(=O)c2nn(-c3ccccc3Cl)c(-c3ccc(Cl)cc3)c2CC(N)=O)CC1
IC50 (Cannabinoid receptor 1 [1]): 0.49 nM | IC50 (Cannabinoid receptor 1 [2]): 0.34 nM | chromatographic logD [3]: 2.9 | solubility ([4]; read-out: solubility): 16 µM (≈ 8.18 µg/mL) | IC50 (Cannabinoid receptor 1 [5]): 0.66 nM

NC(=O)Cc1c(C(=O)N2CCC(c3ccccc3F)CC2)nn(-c2ccccc2Cl)c1-c1ccc(Cl)cc1
IC50 (Cannabinoid receptor 1 [5]): 0.51 nM

NC(=O)Cc1c(C(=O)N2CCC(O)(c3ccc(F)cn3)CC2)nn(-c2ccccc2Cl)c1-c1ccc(Cl)cc1
IC50 (Cannabinoid receptor 1 [1]): 2.1 nM | IC50 (Cannabinoid receptor 1 [2]): 5.5 nM | chromatographic logD [3]: 2.5 | solubility ([4]; read-out: solubility): 290 µM (≈ 165 µg/mL)

NC(=O)Cc1c(C(=O)NC2CCN(C(=O)C3CC3)CC2)nn(-c2ccccc2Cl)c1-c1ccc(Cl)cc1
IC50 (Cannabinoid receptor 1 [7]): 3.7 nM | IC50 (Cannabinoid receptor 1 [1]): 1.2 nM | chromatographic logD [3]: 2.3 | solubility ([4]; read-out: solubility): 80 µM (≈ 43.2 µg/mL) | Ratio [11]: 6.1

NC(=O)Cc1c(C(=O)N2CCC(O)(c3ccc(F)cc3)CC2)nn(-c2ccccc2Cl)c1-c1ccc(Cl)cc1
IC50 (Cannabinoid receptor 1 [7]): 2.6 nM | IC50 (Cannabinoid receptor 1 [1]): 0.1 nM | Selectivity ratio [12]: 1000 | chromatographic logD [3]: 2.8 | Ratio [13]: 13 | bioavailability [6]: 100% | solubility ([4]; read-out: solubility): 75 µM (≈ 42.6 µg/mL) | IC50 (Cannabinoid receptor 1 [5]): 0.19 nM | Ratio [11]: 10.2 | Activity (Mus musculus [14]): inactive | Activity (Mus musculus [15]): 15.1% | Activity (Mus musculus [16]): 5.6% | bioavailability [9]: 70%

N#CC1(c2ccccc2)CCN(C(=O)c2nn(-c3ccccc3Cl)c(-c3ccc(Cl)cc3)c2CC(N)=O)CC1
IC50 (Cannabinoid receptor 1 [7]): 0.78 nM | IC50 (Cannabinoid receptor 1 [1]): 0.11 nM | chromatographic logD [3]: 3.4 | solubility ([4]; read-out: solubility): 9 µM (≈ 5.03 µg/mL) | IC50 (Cannabinoid receptor 1 [5]): 0.23 nM

N=C(N)Cc1c(C(=O)NN2CCOCC2)nn(-c2ccccc2Cl)c1-c1ccc(Cl)cc1
IC50 (Cannabinoid receptor 1 [5]): 26 nM

N#Cc1ccc(N2CCN(C(=O)c3nn(-c4ccccc4Cl)c(-c4ccc(Cl)cc4)c3CC(N)=O)CC2)nc1
IC50 (Cannabinoid receptor 1 [7]): 4.6 nM | IC50 (Cannabinoid receptor 1 [1]): 1.4 nM | chromatographic logD [3]: 2.8 | IC50 (Cannabinoid receptor 1 [5]): 1.2 nM

N#CCc1c(C(=O)N2CCC(c3ncccn3)CC2)nn(-c2ccccc2Cl)c1-c1ccc(Cl)cc1
IC50 (Cannabinoid receptor 1 [5]): 3.8 nM

N=C(N)Cc1c(C(=O)NN2CCCCC2)nn(-c2ccccc2Cl)c1-c1ccc(Cl)cc1
IC50 (Cannabinoid receptor 1 [1]): 0.4 nM | IC50 (Cannabinoid receptor 1 [5]): 0.93 nM

N=C(N)Cc1c(C(=O)N2CCC(O)(c3ccc(F)cc3)CC2)nn(-c2ccccc2Cl)c1-c1ccc(Cl)cc1
IC50 (Cannabinoid receptor 1 [5]): 1.9 nM

Cc1c(C(=O)NN2CCCCC2)nn(-c2ccc(Cl)cc2Cl)c1-c1ccc(Cl)cc1 [RIMONABANT]
Activity (Mus musculus [17]): Active | solubility [4]: 10 µM (≈ 4.64 µg/mL) | Activity (Mus musculus [15]): 14.5

N#CCc1c(C(=O)NN2CCCCC2)nn(-c2ccccc2Cl)c1-c1ccc(Cl)cc1
IC50 (Cannabinoid receptor 1 [1]): 1.8 nM

N=C(Cc1c(C(=O)NN2CCCCC2)nn(-c2ccccc2Cl)c1-c1ccc(Cl)cc1)NO
IC50 (Cannabinoid receptor 1 [1]): 1.3 nM | IC50 (Cannabinoid receptor 1 [5]): 1.8 nM | Ratio [18]: 1.2

N=C(N)Cc1c(C(=O)N2CCC(c3ncccn3)CC2)nn(-c2ccccc2Cl)c1-c1ccc(Cl)cc1
IC50 (Cannabinoid receptor 1 [1]): 0.59 nM | IC50 (Cannabinoid receptor 1 [5]): 9.7 nM

NC(=O)Cc1c(C(=O)N2CCC(C(=O)O)(c3ccccn3)CC2)nn(-c2ccccc2Cl)c1-c1ccc(Cl)cc1
IC50 (Cannabinoid receptor 1 [7]): 23 nM | IC50 (Cannabinoid receptor 1 [1]): 10 nM | chromatographic logD [3]: 1.5 | solubility ([4]; read-out: solubility): 425 µM (≈ 246 µg/mL) | IC50 (Cannabinoid receptor 1 [5]): 16 nM

N=C(N)Cc1c(C(=O)NCc2ccc(F)cc2)nn(-c2ccccc2Cl)c1-c1ccc(Cl)cc1
IC50 (Cannabinoid receptor 1 [1]): 0.79 nM | IC50 (Cannabinoid receptor 1 [5]): 1.2 nM

NC(=O)Cc1c(C(=O)N2CCC(c3ncccn3)CC2)nn(-c2ccccc2Cl)c1-c1ccc(Cl)cc1
IC50 (Cannabinoid receptor 1 [7]): 1.4 nM | IC50 (Cannabinoid receptor 1 [1]): 0.3 nM | chromatographic logD [3]: 2.6 | solubility ([4]; read-out: solubility): 1.1 µM (≈ 0.589 µg/mL) | IC50 (Cannabinoid receptor 1 [5]): 0.71 nM

NC(=O)Cc1c(C(=O)NN2CCCCC2)nn(-c2ccccc2Cl)c1-c1ccc(Cl)cc1
IC50 (Cannabinoid receptor 1 [7]): 1.8 nM | IC50 (Cannabinoid receptor 1 [1]): 0.82 nM | chromatographic logD [3]: 2.6 | solubility ([4]; read-out: solubility): 4.5 µM (≈ 2.13 µg/mL) | IC50 (Cannabinoid receptor 1 [5]): 1.4 nM | remaining at 0.5 h [8]: 72% | bioavailability [9]: 2%

N=C(Cc1c(C(=O)N2CCC(c3ncccn3)CC2)nn(-c2ccccc2Cl)c1-c1ccc(Cl)cc1)NO
IC50 (Cannabinoid receptor 1 [5]): 21 nM

N=C(Cc1c(C(=O)NN2CCOCC2)nn(-c2ccccc2Cl)c1-c1ccc(Cl)cc1)NO
IC50 (Cannabinoid receptor 1 [5]): 51 nM

N=C(N)Cc1c(C(=O)Nc2ccc(F)cc2)nn(-c2ccccc2Cl)c1-c1ccc(Cl)cc1
Stability [19]: Stable | Ratio [20]: 3.2 | bioavailability [21]: 19% | IC50 (Cannabinoid receptor 1 [5]): 1.5 nM | Stability [22]: Stable

N=C(Cc1c(C(=O)Nc2ccc(F)cc2)nn(-c2ccccc2Cl)c1-c1ccc(Cl)cc1)NO
IC50 (Cannabinoid receptor 1 [5]): 1.1 nM

NC(=O)Cc1c(C(=O)N2CCC(O)(c3ccccn3)CC2)nn(-c2ccccc2Cl)c1-c1ccc(Cl)cc1
IC50 (Cannabinoid receptor 1 [7]): 1.9 nM | IC50 (Cannabinoid receptor 1 [1]): 2 nM | Selectivity ratio [12]: 1000 | chromatographic logD [3]: 2.3 | solubility ([4]; read-out: solubility): 400 µM (≈ 220 µg/mL) | IC50 (Cannabinoid receptor 1 [5]): 3.6 nM | Ratio [11]: 10.2
